# Assay results taken from paper PMC4856416, “ATP half‐sites in RadA and RAD51 recombinases bind nucleotides” (FEBS Open Bio, 2016).
# Tests used:
# RAD51–BRC4 = target: T1, RAD51–BRC4 (Homo sapiens, UniProt Q06609); experiment: ITC; format: binding; settings: read-out: RAD51-BRC4 / K D/μM
# T1 construct: monomerised fusion: BRC repeat 4 of BRCA2 covalently linked to the N terminus of the human RAD51 ATPase domain; with Breast cancer type 2 susceptibility protein (BRC repeat 4)
# ITC = format: binding, Pyrococcus furiosus; settings: 25 °C, 50 mM Tris pH 7.5, 100 mM NaCl, 5 mM MgCl2; read-out: RAD51-BRC4 / K D/μM
# HumRadA2 = target: T2, HumRadA2 (Pyrococcus furiosus, UniProt O74036, I169M/Y201A/V202Y/E219S/D220A/K221M/DEL288-301); experiment: ITC; format: binding; settings: 25 °C, 50 mM Tris pH 7.5, 100 mM NaCl, 5 mM MgCl2; read-out: HumRadA2 / K D/μM
# T2 construct: gene radA; humanised monomeric C-terminal ATPase domain of RadA; six FxxA-site mutations; E. coli BL21(DE3)
# T1 sequence (Q06609 97-339 limits assumed): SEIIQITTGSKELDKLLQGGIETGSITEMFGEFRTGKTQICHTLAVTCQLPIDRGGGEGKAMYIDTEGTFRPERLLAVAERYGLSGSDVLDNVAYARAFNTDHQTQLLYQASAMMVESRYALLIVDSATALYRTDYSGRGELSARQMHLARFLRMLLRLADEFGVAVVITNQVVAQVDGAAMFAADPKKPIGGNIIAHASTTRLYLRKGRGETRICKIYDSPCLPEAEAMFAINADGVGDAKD
# T1 sequence (P51587 1517-1551 partner limits assumed): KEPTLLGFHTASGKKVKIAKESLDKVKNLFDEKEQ
Structure (SMILES),Kd (RAD51–BRC4),Kd (ITC),Kd (HumRadA2)
Nc1ncnc2c1ncn2[C@@H]1O[C@H](COP(=O)(O)OP(=O)(O)OP(=O)(O)O)[C@@H](O)[C@H]1O [ATP],1 µM,1 µM,–
Nc1ncnc2c1ncn2[C@@H]1O[C@H](COP(=O)(O)OP(=O)(O)O)[C@@H](O)[C@H]1O [ADP],1 µM,–,0.54 µM
Nc1nc2c(ncn2[C@@H]2O[C@H](COP(=O)(O)OP(=O)(O)O)[C@@H](O)[C@H]2O)c(=O)[nH]1 [GDP],2.5 µM,–,0.21 µM
Nc1ncnc2c1ncn2[C@@H]1O[C@H](COP(=O)(O)OP(=O)(O)NP(=O)(O)O)[C@@H](O)[C@H]1O [AMPPNP],12 µM,–,20 µM
Nc1nc2c(ncn2[C@@H]2O[C@H](COP(=O)(O)OP(=O)(O)OP(=O)(O)O)[C@@H](O)[C@H]2O)c(=O)[nH]1 [GTP],5 µM,–,0.64 µM
